Experimental data from patent publication US20090253634A1, “Methods and Compositions for the Treatment of Gastrointestinal Disorders” (MICROBIA, INC., priority 2005, published 2009).
Bridge positions count the residues as written; N and C are the ends. Peptide text beside a SMILES is read from it.

Assays:
[1] = system: gastrointestinal transit; test: murine gastrointestinal transit (GIT) assay, acute and chronic dosing; type: in vivo, mice
Experimental: In order to determine whether the peptides increase the rate of gastrointestinal transit, the peptides and controls were tested using a murine gastrointestinal transit (GIT) assay (Moon et al. Infection and Immunity 25:127, 1979). In this assay, charcoal, which can be readily visualized in the gastrointestinal tract is administered to mice after the administration of a test compound. The distance traveled by the charcoal is measured and expressed as a percentage of the total length of the […].
Mice were fasted with free access to water for 12 to 16 hours before the treatment with peptide or control buffer. The peptides were orally administered at 1 μg/kg-1 mg/kg of peptide in buffer ([…] pH 7.5) 7 minutes before being given an oral dose of 5% Activated Carbon (Aldrich 242276-250G). Control mice were administered buffer only before being given a dose of Activated Carbon. After 15 minutes, the mice were sacrificed and their intestines from the stomach to the cecum were dissected. The total length of the intestine as well as the distance traveled from the stomach to the charcoal front was measured for each animal and the results are expressed as the percent of the total length of the intestine traveled by the charcoal front. All results are reported as the average of 10 mice±standard deviation. A comparison of the distance traveled by the charcoal between the mice treated with peptide versus the mice treated with vehicle alone was performed using a Student's t test and a statistically significant difference was considered for P<0.05. P-values are calculated using a two-sided T-Test assuming unequal variances.
The identical experiment was performed to determine if SEQ ID NO:3 is effective in a chronic dosing treatment regimen. Briefly, 8 week old CD1 female mice are dosed orally once a day for 5 days with either SEQ ID NO:3 (0.06 mg/kg or 0.25 mg/kg in 20 mM Tris pH 7.5) or vehicle alone (20 mM Tris pH 7.5). On the 5th day, a GIT assay is performed identical to that above except 200 μl of a 10% charcoal solution is administered. […] The results are shown side by side with acute dosing (1 day).

[2] = system: carboxypeptidase A; test: in vitro proteolytic stability: carboxypeptidase A
Experimental: The stability of SEQ ID NO:3 in the presence of several mammalian digestive enzymes was determined. SEQ ID NO:3 was exposed to a variety of in vitro conditions including digestive enzymes and low ph environments designed to simulate gastric fluid. SEQ ID NO:3 was incubated with chymotrypsin, trypsin, pepsin, aminopeptidase, carboxypeptidase A, and simulated gastric fluid (sgf) at ph 1.0. Samples were collected at 0, 3, and 24 h for all conditions except pepsin digestion and the SGF. For the latter two conditions, samples were obtained at 0, 1, and 3 h. Negative control samples were prepared for initial and final time points. A separate, positive activity control was run in parallel to SEQ ID NO:3. All samples were analyzed by LC/MS
Five (5) μL of a 40 μg/mL carboxypeptidase inhibitor (carboxypeptidase inhibitor from potato tuber (Sigma-Aldrich, C0279) stock was added to each control sample (0 and 24 h), for a final concentration of 0.4 μg/mL. All control and test (0, 3 and 24 h) samples were incubated at 37° C. for 5 min. Twenty (20) μL of a 0.01 mg/mL carboxypeptidase A (Carboxypeptidase A from human pancreas; Sigma-Aldrich, C5358) stock was added to each sample. The samples were returned to the 37° C. water bath. The reaction was quenched with 5 μL of a 40 μg/mL carboxypeptidase inhibitor at the proper time point. No extra carboxypeptidase inhibitor was added to the control samples since there was already inhibitor present. Samples were subsequently flash frozen in liquid nitrogen, and stored at −80° C. until analysis. Upon analysis, samples were thawed and transferred to a 1 mL 96-well deep microtiter plate. […] These standards were used to generate a standard curve for quantification of samples. When necessary, the standard curves were also used to calculate the concentration of the corresponding digestion product. Ten (10) μL injections were made of each sample and standard. […] For the SEQ.
To further study the SEQ ID NO:3 carboxypeptidase A digestion product, samples of 0.01 mg/mL SEQ ID NO:3 were prepared in the carboxypeptidase A reaction buffer at a total volume of 500 μL in 2 mL eppendorf tubes. Triplicate samples were prepared for the following time points: 0, 15, 30, 60, 120, 180 and 240 min. The samples were incubated at 37° C. for 5 min. Twenty (20) μL of a 0.01 mg/mL carboxypeptidase A stock were added to each sample and returned to the 37° C. water bath. The reactions were quenched with 5 μL of a 40 μg/mL carboxypeptidase inhibitor at the proper time points. Samples were subsequently flash frozen in liquid nitrogen, and stored at −80° C. until analysis. Upon analysis, samples were thawed and transferred to a 1 mL 96-well plate. Standards of SEQ ID NO:3 were prepared in carboxypeptidase A reaction buffer at 0.625, 1.25, 2.50, 5.00, and 10.00 μg/mL concentrations. These standards were used to generate a standard curve for quantification of samples. When necessary, the standard curves were also used to calculate the concentration of the corresponding digestion product. Ten (10) μL injections were made of each sample and standard. If the formation of a digestion product was evident, then a spectral analysis was used to determine the mass of the digestion product, and predict its possible identity.

[3] = system: bowel habits; test: seven-day oral dosing study of bowel habits in humans; type: in vivo
Experimental: Seven daily doses of 30, 100, 300, or 1000 μg of chemically synthesized SEQ ID NO:3 were given to 48 healthy subjects. SEQ ID NO:3 or placebo (vehicle) was administered orally in 5.0 mL 50 mM phosphate buffer (pH 6.0) plus 3×20 mL water rinses and 175 mL water after at least a 10-hour fast. In each dosing group, 8 subjects were randomized to receive SEQ ID NO:3 and 4 subjects were randomized to receive placebo. […] The Mean Ease of Passage (FIG. 15d) of stools was tested for subjects treated with 30-1000 μg SEQ ID NO:3.

Compound	intestinal transit rates versus Tris buffer or equivalent dose of Zelnorm ([1]; acute, chemically synthesized peptides, FIG. 4b)	gastrointestinal transit rate ([1]; acute, oral, SEQ ID NO:4 and Zelnorm 0.1 mg/kg, FIG. 3a, 3b)	effect in mouse gastrointestinal motility assay upon chronic dosing ([1]; oral once a day for 5 days, SEQ ID NO:3 0.06 or 0.25 mg/kg, FIG. 4c)	Cleavage of SEQ ID NO: 3 by proteolytic substance ([2]; Carboxypetidase A, 37° C., up to 24 h)	SEQ ID NO:3 average concentration ([2]; T0, carboxypeptidase A time course)	SEQ ID NO:3 average concentration ([2]; T240 (240 min))	average calculated SEQ ID NO:3 product concentration ([2]; T24 h samples)	SEQ ID NO:3 calculated concentration ([2]; all samples (0, 3, 24 h and controls))	calculated concentration of the SEQ ID NO:3 products ([2]; time 0 control (with inhibitor))	calculated concentration of the SEQ ID NO:3 products ([2]; time 0 samples)	Mean Ease of Passage of stools, baseline versus treatment, versus placebo ([3]; 1000 μg dose group)	Mean Stool Weight ([3]; seven daily oral doses 30-1000 μg, higher doses)	Mean Stool Frequency (stools per week) ([3]; seven daily oral doses 30-1000 μg, higher doses, healthy subjects)	average concentration of SEQ ID NO:6 (digestion product of SEQ ID NO:3) ([2]; T0)
C[C@@H]1NC(=O)[C@@H]2CCCN2C(=O)[C@H](CC(N)=O)NC(=O)[C@@H]2CSSC[C@H](N)C(=O)N[C@H]3CSSC[C@H](NC1=O)C(=O)N[C@@H]([C@@H](C)O)C(=O)NCC(=O)N[C@H](C(=O)N[C@@H](Cc1ccc(O)cc1)C(=O)O)CSSC[C@H](NC(=O)[C@H](Cc1ccc(O)cc1)NC(=O)[C@H](CCC(=O)O)NC3=O)C(=O)N2 [SEQ ID NO:3] (H-CCEYCCNPACTGCY-OH; disulfide 1-6, 2-10, 5-13; N-terminus and C-terminus assumed)	increase intestinal transit rates more than either Tris buffer alone or an equivalent dose of Zelnorm®	increase gastrointestinal transit rate	effective	Yes	5115 (+/−121) nM	4438 (+/−188) nM	1.3 (+/−0.04) μg/mL	8.4 (+/−1.2) μg/mL	0.8 (+/−0.02) μg/mL	0.8 (+/−0.01) μg/mL	greatest difference in baseline versus treatment values	increase in Mean Stool Weight	increase in Mean Stool Frequency score	–
C[C@@H]1NC(=O)[C@@H]2CCCN2C(=O)[C@H](CC(N)=O)NC(=O)[C@@H]2CSSC[C@H](N)C(=O)N[C@H]3CSSC[C@H](NC1=O)C(=O)N[C@@H]([C@@H](C)O)C(=O)NCC(=O)N[C@H](C(=O)O)CSSC[C@H](NC(=O)[C@H](Cc1ccc(O)cc1)NC(=O)[C@H](CCC(=O)O)NC3=O)C(=O)N2 [SEQ ID NO:6] (H-CCEYCCNPACTGC-OH; disulfide 1-6, 2-10, 5-13)	–	–	–	–	–	–	–	–	–	–	–	–	–	108 (+/−2) nM
